The values that follow are results of earlier work, collected in US20260144768A1, “MODIFIED RELEASE GAMMA-HYDROXYBUTYRATE FORMULATIONS HAVING IMPROVED PHARMACOKINETICS” (Flamel Ireland Limited, priority 2022, published 2026).

The structures appear in SMILES notation. Where two headings read alike, the source gives them in different places.

Assay in series [1]: not given
The source holds these as a separate data set.

A further series has as its system plasma proteins. The note with it: GHB 3 mcg/mL to 300 mcg/mL.
Series [2] concerns rat. The note with it: 2-year study.
Another series deals with mouse. The note with it: 2-year study.
The test system of the next series is CYP3A. Particulars: up to 3 mM (378 mcg/mL).
The next series has as its system bacterial gene mutation. Particulars: in vitro.
The next series deals with pregnant rats. Particulars: 150, 350, or 1,000 mg/kg/day oral.
Series [3] deals with rats.
The conditions of series [4]: 6 g per day (2 × 3 g) with ibuprofen 800 mg/dose four times per day.
Another series concerns the target T1, CYP1A2 (Homo sapiens, UniProt P05177).
T1 sequence (P05177 1-516): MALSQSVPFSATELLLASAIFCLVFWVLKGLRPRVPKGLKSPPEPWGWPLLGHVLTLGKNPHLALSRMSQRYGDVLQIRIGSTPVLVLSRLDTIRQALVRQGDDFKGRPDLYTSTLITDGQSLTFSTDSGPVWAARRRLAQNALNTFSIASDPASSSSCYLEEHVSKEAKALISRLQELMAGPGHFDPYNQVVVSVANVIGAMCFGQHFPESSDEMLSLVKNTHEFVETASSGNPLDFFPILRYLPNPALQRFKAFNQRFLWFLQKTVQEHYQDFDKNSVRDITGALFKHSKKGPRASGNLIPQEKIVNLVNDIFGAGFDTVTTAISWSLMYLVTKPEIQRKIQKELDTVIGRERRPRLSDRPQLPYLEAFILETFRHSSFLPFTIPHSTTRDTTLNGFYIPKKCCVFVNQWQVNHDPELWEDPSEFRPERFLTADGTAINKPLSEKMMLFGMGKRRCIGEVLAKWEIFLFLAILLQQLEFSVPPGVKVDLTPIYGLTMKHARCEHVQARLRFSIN
The note with it: up to 3 mM (378 mcg/mL).

The target of the next series is CYP2C9 (Homo sapiens, UniProt P11712). The note with it: up to 3 mM (378 mcg/mL).
The subject of series [5] is rat. The note with it: in vivo.
The next series has as its system mammalian cells. The note with it: in vitro.
The next series concerns pregnant rabbits. Particulars: 300, 600, or 1,200 mg/kg/day oral.
The target in another series is CYP2D6 (Homo sapiens, UniProt P10635). The note with it: up to 3 mM (378 mcg/mL).
Another series has as its target CYP2C19 (Homo sapiens, UniProt P33261). The note with it: up to 3 mM (378 mcg/mL).
A further series concerns the target CYP2E1 (Homo sapiens, UniProt P05181). Particulars: up to 3 mM (378 mcg/mL).
For series [6], the system named is rats. Particulars: 150, 350, or 1,000 mg/kg/day oral.
Series [7] deals with rats. The source holds these as a separate data set.

Chain of CYP2C9 (P11712 whole entry): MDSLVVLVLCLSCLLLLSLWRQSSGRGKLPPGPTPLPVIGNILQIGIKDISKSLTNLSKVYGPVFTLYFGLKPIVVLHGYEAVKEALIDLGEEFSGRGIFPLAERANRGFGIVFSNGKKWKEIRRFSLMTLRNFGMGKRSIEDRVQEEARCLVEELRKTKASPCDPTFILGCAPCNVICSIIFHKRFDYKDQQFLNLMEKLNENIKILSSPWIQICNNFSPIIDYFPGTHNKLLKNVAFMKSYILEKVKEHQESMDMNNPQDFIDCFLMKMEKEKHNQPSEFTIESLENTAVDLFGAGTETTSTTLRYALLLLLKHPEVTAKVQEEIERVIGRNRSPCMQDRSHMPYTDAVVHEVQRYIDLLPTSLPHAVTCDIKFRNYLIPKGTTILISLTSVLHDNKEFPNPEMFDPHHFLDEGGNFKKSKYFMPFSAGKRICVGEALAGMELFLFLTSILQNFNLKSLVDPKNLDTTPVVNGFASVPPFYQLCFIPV
Chain of CYP2C19 (P33261 whole entry): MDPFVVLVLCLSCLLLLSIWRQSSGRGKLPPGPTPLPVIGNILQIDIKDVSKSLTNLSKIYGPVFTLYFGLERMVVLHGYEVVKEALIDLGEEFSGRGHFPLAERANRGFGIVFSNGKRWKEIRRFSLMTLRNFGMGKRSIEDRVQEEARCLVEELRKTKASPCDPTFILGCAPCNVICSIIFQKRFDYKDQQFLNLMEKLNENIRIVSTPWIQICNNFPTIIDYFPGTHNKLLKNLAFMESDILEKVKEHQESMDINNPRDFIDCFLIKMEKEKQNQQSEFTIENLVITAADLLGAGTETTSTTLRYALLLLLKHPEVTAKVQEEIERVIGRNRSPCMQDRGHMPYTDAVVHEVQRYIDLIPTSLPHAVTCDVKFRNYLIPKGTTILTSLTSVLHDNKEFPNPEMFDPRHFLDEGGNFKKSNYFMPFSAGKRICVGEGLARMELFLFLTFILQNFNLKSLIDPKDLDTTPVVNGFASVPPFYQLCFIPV
Chain of CYP2E1 (P05181 whole entry): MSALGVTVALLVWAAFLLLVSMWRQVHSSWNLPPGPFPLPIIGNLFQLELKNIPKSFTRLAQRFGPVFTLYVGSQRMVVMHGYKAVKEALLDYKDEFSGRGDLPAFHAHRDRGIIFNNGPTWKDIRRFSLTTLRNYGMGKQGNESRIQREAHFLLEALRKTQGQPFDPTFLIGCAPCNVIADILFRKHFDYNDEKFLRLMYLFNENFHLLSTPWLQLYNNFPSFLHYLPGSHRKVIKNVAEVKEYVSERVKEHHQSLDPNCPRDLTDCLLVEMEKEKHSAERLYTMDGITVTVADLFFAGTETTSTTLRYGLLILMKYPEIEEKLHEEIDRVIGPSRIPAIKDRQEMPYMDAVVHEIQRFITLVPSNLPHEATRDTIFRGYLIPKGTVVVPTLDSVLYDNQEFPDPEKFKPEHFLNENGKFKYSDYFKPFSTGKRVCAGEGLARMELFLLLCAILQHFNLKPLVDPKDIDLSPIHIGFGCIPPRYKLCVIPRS
Chain of CYP2D6 (P10635 whole entry): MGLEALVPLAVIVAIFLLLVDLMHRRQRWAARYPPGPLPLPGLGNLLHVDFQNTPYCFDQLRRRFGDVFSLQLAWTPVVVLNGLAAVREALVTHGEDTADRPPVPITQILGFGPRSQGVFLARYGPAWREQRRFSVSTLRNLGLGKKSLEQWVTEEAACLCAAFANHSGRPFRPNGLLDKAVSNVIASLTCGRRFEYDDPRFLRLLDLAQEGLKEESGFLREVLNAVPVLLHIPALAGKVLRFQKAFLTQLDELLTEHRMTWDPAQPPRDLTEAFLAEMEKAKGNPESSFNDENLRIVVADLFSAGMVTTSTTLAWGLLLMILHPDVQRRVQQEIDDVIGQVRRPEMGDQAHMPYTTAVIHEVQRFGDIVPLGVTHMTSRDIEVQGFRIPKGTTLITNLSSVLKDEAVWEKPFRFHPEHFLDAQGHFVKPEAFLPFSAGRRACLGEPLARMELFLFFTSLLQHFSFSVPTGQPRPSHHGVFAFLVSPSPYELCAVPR

In the case of `O=C(O)CCCO` [GHB, gamma-hydroxybutyrate], the Apparent oral clearance is, setting by setting: (Child's Class A) 4.5 mL/min/kg; (Child's Class C) 4.1 mL/min/kg; (healthy adults) 9.1 mL/min/kg. Further, the “Mean t1/2” value runs as follows: (Child's Class A) 32 min; (Child's Class C) 59 min; (control patients) 22 min. Besides, in [1] (in vivo), the “Apparent volume of distribution” value is 0.19 to 0.384 L/kg. Moreover, the Elimination half-life in [1] (in vivo) was 30 to 60 min. For the same molecule, the “Unchanged drug in human urine” value in series [1] (within 6 to 8 hours after dosing) is “less than 5%”. Moreover, in the series with plasma proteins, the “Bound to plasma proteins” value is “less than 1%”.
For `O=C1CCCO1` [gamma-butyrolactone], the Carcinogenic activity entry in the series on rat [2] and in the series with mouse was “no clear evidence of carcinogenic activity” in each case.
For the molecule `O=C([O-])CCCO.[Na+]` [sodium oxybate, sodium 4-hydroxybutyrate], in the series on CYP3A, the “Inhibition of CYP3A activity” value is “does not significantly inhibit”. Also, the Bacterial gene mutation result in the series with bacterial gene mutation is “negative”. For the same molecule, the Developmental toxicity entry in the series on pregnant rats and with pregnant rabbits was “no clear evidence of developmental toxicity” each time. In addition, the Mortality entry in the series with rats [3] (0, 100, 300, or 900 mg/kg/day, two highest doses) is on record as “mortality was observed”. Further, the “Findings at the highest dose tested” value in the series with rats [3] (900 mg/kg/day) is “Reduced body weight gain in males and females and delayed sexual maturation in males”. For the same molecule, in series [4], the “Systemic exposure to GHB on co-administration” value is “comparable”. Moreover, on CYP1A2, the “Inhibition of CYP1A2 activity” value was “does not significantly inhibit”. Besides, the “Inhibition of CYP2C9 activity” value on CYP2C9 was “does not significantly inhibit”. Also, the Micronucleus result in the series with rat [5] was “negative”. The Chromosomal aberration entry in the series with mammalian cells is on record as “negative”. At CYP2D6, the “Inhibition of CYP2D6 activity” value is “does not significantly inhibit”. Moreover, on CYP2C19, the “Inhibition of CYP2C19 activity” value was “does not significantly inhibit”. In addition, at CYP2E1, the “Inhibition of CYP2E1 activity” value is “does not significantly inhibit”. The Effects on fertility result with rats [6] was “no adverse effects on fertility”. Besides, in the series on rats [7] (highest dose tested), the “Plasma exposure (AUC) relative to humans at the MRHD of 9 g per night” value is 2 times. Moreover, the Tumors entry with rats [7] (oral doses up to 1,000 mg/kg/day) is reported as “no increase in tumors”.
